How the values were obtained:
[1] = tested on: MV4-11 cells; experiment: Inhibition of MV4-11 cell proliferation (CellTiterGlo); assay type: cell-based; settings: Homo sapiens, 72 hours growth, uncertainty ±20%
Experimental: To assess the cellular potency of compounds of the present invention, FLT3 specific growth inhibition was measured in the leukemic cell line MV4-11 (ATCC Number: CRL-9591). MV4-11 cells are derived from a patient with childhood acute myelomonocytic leukemia with an 11q23 translocation resulting in a MLL gene rearrangement and containing an FLT3-ITD mutation (AML subtype M4)(1,2). MV4-11 cells cannot grow and survive without active FLT3ITD.
To measure proliferation inhibition by compounds of the present invention, the luciferase based CellTiterGlo reagent (Promega), which quantifies total cell number based on total cellular ATP concentration, was used. Cells are plated at 10,000 cells per well in 100 ul of in RPMI media containing penn/strep, 10% FBS and 1 ng/ml GM-CSF or 1 ng/ml IL-3 for MV4-11 and Baf3 cells respectively.
Compound dilutions or 0.1% DMSO (vehicle control) are added to cells and the cells are allowed to grow for 72 hours at standard cell growth conditions (37° C., 5% CO2). For activity measurements in MV4-11 cells grown in 50% plasma, cells were plated at 10,000 cells per well in a 1:1 mixture of growth media and human plasma (final volume of 100 μL). To measure total cell growth an equal volume of CellTiterGlo reagent was added to each well, according to the manufacturer's instructions, and luminescence was quantified. Total cell growth was quantified as the difference in luminescent counts (relative light units, RLU) of cell number at Day 0 compared to total cell number at Day 3 (72 hours of growth and/or compound treatment). One hundred percent inhibition of growth is defined as an RLU equivalent to the Day 0 reading. Zero percent inhibition was defined as the RLU signal for the DMSO vehicle control at Day 3 of growth.
Data points are an average of triplicate samples. […] Inhibition and IC50 data analysis was done with GraphPad Prism using a non-linear regression fit with a multiparamater, sigmoidal dose-response (variable slope) equation.

[2] = tested on: Baf3 cells; experiment: Baf3 cell proliferation (non-specific toxicity control); assay type: cell-based, murine; settings: Mus musculus, IL-3 driven
Description: The IL-3 dependent, murine b-cell lymphoma cell line, Baf3, were used as a control to confirm the selectivity of compound inhibition of proliferation for representatives of the present invention by measuring non-specific growth inhibition by the compounds of the present invention (data not shown). To measure proliferation inhibition by compounds of the present invention, the luciferase based CellTiterGlo reagent (Promega), which quantifies total cell number based on total cellular ATP concentration, was used. […] Compound dilutions or 0.1% DMSO (vehicle control) are added to cells and the cells are allowed to grow for 72 hours at standard cell growth conditions (37° C., 5% CO2). […] To measure total cell growth an equal volume of CellTiterGlo reagent was added to each well, according to the manufacturer's instructions, and luminescence was quantified. Total cell growth was quantified as the difference in luminescent counts (relative light units, RLU) of cell number at Day 0 compared to total cell number at Day 3 (72 hours of growth and/or compound treatment). One hundred percent inhibition of growth is defined as an RLU equivalent to the Day 0 reading. Zero percent inhibition was defined as the RLU signal for the DMSO vehicle control at Day 3 of growth. MV4-11 cells express the FLT3 internal tandem duplication mutation, and thus are entirely dependent upon FLT3 activity for growth. […]

[3] = tested on: MV4-11 tumor xenografts; experiment: Nude mouse MV4-11 human tumor xenograft regression model; assay type: in vivo; settings: for final tumor weight: study termination
Experimental: Female athymic nude mice (CD-1, nu/nu, 9-10 weeks old) were obtained from Charles River Laboratories (Wilmington, Mass.) and were maintained according to NIH standards. All mice were group housed (5 mice/cage) under clean-room conditions in sterile micro-isolator cages on a 12-hour light/dark cycle in a room maintained at 21-22° C. and 40-50% humidity. Mice were fed irradiated standard rodent diet and water ad libitum. All animals were housed in a Laboratory Animal Medicine facility that is fully accredited by the American Association for Assessment and Accreditation of Laboratory Animal Care (AAALAC). All procedures involving animals were conducted in compliance with the NIH Guide for the Care and Use of Laboratory Animals and all protocols were approved by an […] Animal Care and Use Committee (IACUC). The human leukemic MV4-11 cell line was obtained from the American Type Culture Collection (ATCC Number: CRL-9591) and propagated in RPMI medium containing 10% FBS (fetal bovine serum) and 5 ng/mL GM-CSF (R&D Systems). […] MV4-11 cells express constitutively active phosphorylated FLT3 receptor as a result of this naturally occurring FLT3/ITD mutation. Strong anti-tumor activity against MV4-11 tumor growth in the nude mouse tumor xenograft model is a desirable quality of the invention. […] Female athymic nude mice weighing no less than 20-21 grams were inoculated subcutaneously in the left inguinal region of the thigh with 5×10^6 tumor cells in a delivery volume of 0.2 mL. For regression studies, the tumors were allowed to grow to a pre-determined size prior to initiation of dosing.

[4] = Body weight and overt toxicity in the MV4-11 xenograft study; settings: 11-day oral treatment, doses up to 200 mg/kg/day
Experimental: If tumors in the control mice reached ˜10% of body weight (˜2.0 grams), the study was to be terminated. […] During the study, tumor growth was measured three times-a-week (M, W, F) using electronic Vernier calipers. Tumor volume (mm^3) was calculated using the formula […], where L=length (mm) and W=width (shortest distance in mm) of the tumor. Body weight was measured three times-a-week and a loss of body weight >10% was used as an indication of lack of compound tolerability. Unacceptable toxicity was defined as body weight loss >20% during the study. Mice were closely examined daily at each dose for overt clinical signs of adverse, drug-related side effects.
Mice were weighed three times each week (M, W, F) during the study and were examined daily at the time of dosing for overt clinical signs of any adverse, drug-related side effects.

[5] = tested on: FLT3 phosphorylation in MV4-11 tumors; experiment: FLT3 phosphorylation in MV4-11 tumors (immunoprecipitation / western blot); assay type: in vivo, mouse; settings: tumors harvested 6 hours later
Experimental: Tumors were harvested 6 hours later and snap frozen for assessment of FLT3 phosphorylation by western blots.
Harvested tumors were frozen and processed for immunoblot analysis of FLT3 phosphorylation in the following manner: 200 mg of tumor tissue was dounce homogenized in lysis buffer (50 mM Hepes, 150 mM NaCl, 10% Glycerol, 1% Triton-X-100, 10 mM NaF, 1 mM EDTA, 1.5 mM MgCl2, 10 mM NaPyrophosphate) supplemented with phosphatase (Sigma Cat# P2850) and protease inhibitors (Sigma Cat #P8340). Insoluble debris was removed by centrifugation at 1000×g for 5 minutes at 4° C. […] Immunoprecipitated FLT3 from tumor lysates were then washed four times with lysis buffer and separated by SDS-PAGE. […] Blots were then stripped and reprobed with anti-FLT3 antibody for normalization of phosphorylation signals.

CN(C)CC(=O)N1CCC(c2ccc(NC(=O)c3nc(C#N)c[nH]3)c(C3=CCCCC3)c2)CC1 [Example 38, 4-Cyano-1H-imidazole-2-carboxylic acid {2-cyclohex-1-enyl-4-[1-(2-dimethylamino-acetyl)-piperidin-4-yl]-phenyl}-amide]
IC50 [1]: 23.5 nM | inhibition at 3 µM [2]: < 50% | tumor growth delay compared to vehicle-treated control group ([3]; 10 mg/kg b.i.d. oral, 11 days): no significant growth delay | final tumor weight ([3]; 10 mg/kg b.i.d. oral): no significant decrease in final tumor weight | final tumor weight ([3]; 50 mg/kg b.i.d. oral): no measurable tumor mass detectable | effects on body weight [4]: no significant adverse effects on body weight | level of FLT3 phosphorylation in MV4-11 tumors versus vehicle ([5]; single dose 10 mg/kg po): partial reduction | level of FLT3 phosphorylation in MV4-11 tumors versus vehicle ([5]; single dose 100 mg/kg po): biologically significant reduction

Reference: US7795279B2, “Method of inhibiting FLT3 kinase” (Janssen Pharmaceutica NV, priority 2005, dated 2010)
